Experimental data reported in PubChem BioAssay AID1963870 (Molecular Pharmacology Branch, DTP, NCI, 2024).

Test system: 292921-168-R-J2-PDC KRAS tumor spheroid viability
Experiment: Anticancer human tumor 292921-168-R-J2-PDC patient-derived pancreatic carcinoma cell line growth inhibition [KRAS2]
Details: spheroids with HUVEC and MSC; for IC50: curve of first compound; for viability, T/C: stronger effect = lower value
Procedure, shortened: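 Combination screen of spheroid viability in tumor-cell co-cultures with endothelial (HUVEC) and mesenchymal stem cell stroma. Each agent was tested in half-log dilutions, topping at clinical Cmax or at 10 microM without a known Cmax.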

[1] = second compound 0.0316 µM, first compound 0.0316 µM
[2] = second compound 0.0316 µM, first compound 0.1 µM
[3] = second compound 0.0316 µM, first compound 0.316 µM
[4] = second compound 0.0316 µM, first compound 1 µM
[5] = second compound 0.0316 µM, first compound 3.16 µM
[6] = second compound 0.0316 µM, first compound 10 µM
[7] = second compound 0.1 µM, first compound 0.0316 µM
[8] = second compound 0.1 µM, first compound 0.1 µM
[9] = second compound 0.1 µM, first compound 0.316 µM
[10] = second compound 0.1 µM, first compound 1 µM
[11] = second compound 0.1 µM, first compound 3.16 µM
[12] = second compound 0.1 µM, first compound 10 µM
[13] = second compound 0.316 µM, first compound 0.0316 µM
[14] = second compound 0.316 µM, first compound 0.1 µM
[15] = second compound 0.316 µM, first compound 0.316 µM
[16] = second compound 0.316 µM, first compound 1 µM
[17] = second compound 0.316 µM, first compound 3.16 µM
[18] = second compound 0.316 µM, first compound 10 µM
[19] = second compound 1 µM, first compound 0.0316 µM
[20] = second compound 1 µM, first compound 0.1 µM
[21] = second compound 1 µM, first compound 0.316 µM
[22] = second compound 1 µM, first compound 1 µM
[23] = second compound 1 µM, first compound 3.16 µM
[24] = second compound 1 µM, first compound 10 µM
[25] = second compound 3.16 µM, first compound 0.0316 µM
[26] = second compound 3.16 µM, first compound 0.1 µM
[27] = second compound 3.16 µM, first compound 0.316 µM
[28] = second compound 3.16 µM, first compound 1 µM
[29] = second compound 3.16 µM, first compound 3.16 µM
[30] = second compound 3.16 µM, first compound 10 µM
[31] = second compound 0.1 µM, first compound 0.01 µM
[32] = second compound 0.316 µM, first compound 0.01 µM
[33] = second compound 1 µM, first compound 0.01 µM
[34] = second compound 3.16 µM, first compound 0.01 µM
[35] = second compound 10 µM, first compound 0.01 µM
[36] = second compound 10 µM, first compound 0.0316 µM
[37] = second compound 10 µM, first compound 0.1 µM
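Note: drug exposure lasted seven days after spheroids formed for three days.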
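Throughout, for viability, T/C: percent of DMSO vehicle control viability which is 100%.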

SMILES: CC1OCC2(CCN(c3cnc(Sc4ccnc(N)c4Cl)c(N)n3)CC2)C1N (stereo not given) + C=CC(=O)N1CCN(c2nc(OCC3CCCN3C)nc3c2CCN(c2cccc4cccc(C)c24)C3)CC1CC#N
- IC50 (second compound 0.0316 µM): 384 nM
- IC50 (second compound 0.1 µM): 227 nM
- IC50 (second compound 0.316 µM): 94.6 nM
- IC50 (second compound 1 µM): < 31.6 nM
- IC50 (second compound 3.16 µM): < 31.6 nM
- viability, T/C [1]: 92.1%
- viability, T/C [2]: 68%
- viability, T/C [3]: 48.8%
- viability, T/C [4]: 45.6%
- viability, T/C [5]: 32.9%
- viability, T/C [6]: 28.4%
- viability, T/C [7]: 82.9%
- viability, T/C [8]: 61.2%
- viability, T/C [9]: 43.8%
- viability, T/C [10]: 36.9%
- viability, T/C [11]: 37.6%
- viability, T/C [12]: 26.8%
- viability, T/C [13]: 66.1%
- viability, T/C [14]: 47.8%
- viability, T/C [15]: 37.4%
- viability, T/C [16]: 37.3%
- viability, T/C [17]: 27.5%
- viability, T/C [18]: 25.3%
- viability, T/C [19]: 20.5%
- viability, T/C [20]: 18.6%
- viability, T/C [21]: 16.4%
- viability, T/C [22]: 17.4%
- viability, T/C [23]: 16.1%
- viability, T/C [24]: 15.8%
- viability, T/C [25]: 0.11%
- viability, T/C [26]: 0.11%
- viability, T/C [27]: 0.11%
- viability, T/C [28]: 0.1%
- viability, T/C [29]: 0.11%
- viability, T/C [30]: 0.17%

SMILES: Cn1nccc1Nc1nccc(-c2cc3c(s2)C(C)(C)N(CCN2CCOCC2)C3=O)n1 + C=CC(=O)N1CCN(c2nc(OCC3CCCN3C)nc3c2CCN(c2cccc4cccc(C)c24)C3)CC1CC#N
- IC50 (second compound 0.0316 µM): 93.1 nM
- IC50 (second compound 0.1 µM): 77.8 nM
- IC50 (second compound 0.316 µM): 59 nM
- IC50 (second compound 1 µM): < 31.6 nM
- IC50 (second compound 3.16 µM): < 31.6 nM
- viability, T/C [1]: 86.7%
- viability, T/C [2]: 47.5%
- viability, T/C [3]: 20.6%
- viability, T/C [4]: 13%
- viability, T/C [5]: 11.6%
- viability, T/C [6]: 11.9%
- viability, T/C [7]: 80.2%
- viability, T/C [8]: 41.4%
- viability, T/C [9]: 21.6%
- viability, T/C [10]: 12.5%
- viability, T/C [11]: 11.1%
- viability, T/C [12]: 11.6%
- viability, T/C [13]: 63.5%
- viability, T/C [14]: 38.6%
- viability, T/C [15]: 16.2%
- viability, T/C [16]: 12.2%
- viability, T/C [17]: 9.88%
- viability, T/C [18]: 11.9%
- viability, T/C [19]: 30.9%
- viability, T/C [20]: 18.4%
- viability, T/C [21]: 8.49%
- viability, T/C [22]: 8.54%
- viability, T/C [23]: 7.25%
- viability, T/C [24]: 8.46%
- viability, T/C [25]: 0.45%
- viability, T/C [26]: 0.11%
- viability, T/C [27]: 0.11%
- viability, T/C [28]: 0.1%
- viability, T/C [29]: 0.1%
- viability, T/C [30]: 0.16%

SMILES: CC(=O)OC12COC1CC(O)C1(C)C(=O)C(O)C3=C(C)C(OC(=O)C(O)C(NC(=O)OC(C)(C)C)c4ccccc4)CC(O)(C(OC(=O)c4ccccc4)C21)C3(C)C (stereo not given) + CC1OCC2(CCN(c3cnc(Sc4ccnc(N)c4Cl)c(N)n3)CC2)C1N
- IC50 (second compound 0.1 µM): < 10 nM
- IC50 (second compound 0.316 µM): < 10 nM
- IC50 (second compound 1 µM): < 10 nM
- IC50 (second compound 3.16 µM): < 10 nM
- IC50 (second compound 10 µM): < 10 nM
- viability, T/C [31]: 14.3%
- viability, T/C [7]: 14.6%
- viability, T/C [8]: 12.2%
- viability, T/C [9]: 12.4%
- viability, T/C [10]: 13.6%
- viability, T/C [11]: 16.8%
- viability, T/C [32]: 14.6%
- viability, T/C [13]: 11.3%
- viability, T/C [14]: 10.6%
- viability, T/C [15]: 10.7%
- viability, T/C [16]: 12.2%
- viability, T/C [17]: 13.9%
- viability, T/C [33]: 16.9%
- viability, T/C [19]: 17.1%
- viability, T/C [20]: 13.4%
- viability, T/C [21]: 13.9%
- viability, T/C [22]: 14.2%
- viability, T/C [23]: 22.1%
- viability, T/C [34]: 13.1%
- viability, T/C [25]: 11.6%
- viability, T/C [26]: 10.9%
- viability, T/C [27]: 10.4%
- viability, T/C [28]: 13.2%
- viability, T/C [29]: 13.8%
- viability, T/C [35]: 13.7%
- viability, T/C [36]: 11.8%
- viability, T/C [37]: 11.8%
- viability, T/C (second compound 10 µM, first compound 0.316 µM): 11%
- viability, T/C (second compound 10 µM, first compound 1 µM): 13.4%
- viability, T/C (second compound 10 µM, first compound 3.16 µM): 13.7%

SMILES: CN(C)C/C=C/C(=O)Nc1cc2c(Nc3ccc(F)c(Cl)c3)ncnc2cc1O[C@H]1CCOC1 + CC1OCC2(CCN(c3cnc(Sc4ccnc(N)c4Cl)c(N)n3)CC2)C1N
- IC50 (second compound 0.1 µM): > 100 nM
- IC50 (second compound 0.316 µM): 0.889 nM
- IC50 (second compound 1 µM): > 100 nM
- IC50 (second compound 3.16 µM): < 0.316 nM
- IC50 (second compound 10 µM): > 100 nM
- viability, T/C (second compound 0.1 µM, first compound 0.000316 µM): 82.2%
- viability, T/C (second compound 0.1 µM, first compound 0.001 µM): 73.3%
- viability, T/C (second compound 0.1 µM, first compound 0.00316 µM): 60.9%
- viability, T/C [31]: 64.3%
- viability, T/C [7]: 57.5%
- viability, T/C [8]: 57.4%
- viability, T/C (second compound 0.316 µM, first compound 0.000316 µM): 53.5%
- viability, T/C (second compound 0.316 µM, first compound 0.001 µM): 48.3%
- viability, T/C (second compound 0.316 µM, first compound 0.00316 µM): 46.9%
- viability, T/C [32]: 45.9%
- viability, T/C [13]: 52.3%
- viability, T/C [14]: 46.1%
- viability, T/C (second compound 1 µM, first compound 0.000316 µM): 92%
- viability, T/C (second compound 1 µM, first compound 0.001 µM): 78%
- viability, T/C (second compound 1 µM, first compound 0.00316 µM): 94%
- viability, T/C [33]: 88.6%
- viability, T/C [19]: 93%
- viability, T/C [20]: 79.8%
- viability, T/C (second compound 3.16 µM, first compound 0.000316 µM): 23.2%
- viability, T/C (second compound 3.16 µM, first compound 0.001 µM): 25.3%
- viability, T/C (second compound 3.16 µM, first compound 0.00316 µM): 28.8%
- viability, T/C [34]: 29.8%
- viability, T/C [25]: 31.2%
- viability, T/C [26]: 33.2%
- viability, T/C (second compound 10 µM, first compound 0.000316 µM): 50.8%
- viability, T/C (second compound 10 µM, first compound 0.001 µM): 75.5%
- viability, T/C (second compound 10 µM, first compound 0.00316 µM): 82.6%
- viability, T/C [35]: 88.3%
- viability, T/C [36]: 91.5%
- viability, T/C [37]: 85.5%
